Reference: ChEMBL document CHEMBL1201862, “PubChem BioAssay data set” (2004)
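Five concentrations, 48 hours, 96-well plates. GI50 is the concentration that inhibits growth by half.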 Activity calls are given as the source filed them. Cut-off read from the data, not from the text of the source: active = GI50 up to about 1.1 µM and inactive = higher.

How the values were obtained:
Assay in all cases: NCI tumour cell line growth inhibition, 48 h
UACC-62 = system: UACC-62
TK-10 = system: TK-10
MDA-MB-231 = system: MDA-MB-231
SNB-19 = system: SNB-19
HCC 2998 = system: HCC 2998
MDA-MB-435 = system: MDA-MB-435
CAKI-1 = system: CAKI-1
SF-539 = system: SF-539
SK-MEL-2 = system: SK-MEL-2
EKVX = system: EKVX
NCI/ADR-RES = system: NCI/ADR-RES
NCI-H460 = system: NCI-H460
BT-549 = system: BT-549
SK-MEL-5 = system: SK-MEL-5
A498 = system: A498
CCRF-CEM = system: CCRF-CEM
M14 = system: M14
KM12 = system: KM12
MOLT-4 = system: MOLT-4
IGROV-1 = system: IGROV-1

SMILES	GI50 (UACC-62)	GI50 (TK-10)	GI50 (MDA-MB-231)	GI50 (SNB-19)	GI50 (HCC 2998)	GI50 (MDA-MB-435)	GI50 (CAKI-1)	GI50 (SF-539)	GI50 (SK-MEL-2)	GI50 (EKVX)	GI50 (NCI/ADR-RES)	GI50 (NCI-H460)	GI50 (BT-549)	GI50 (SK-MEL-5)	GI50 (A498)	GI50 (CCRF-CEM)	GI50 (M14)	GI50 (KM12)	GI50 (MOLT-4)	GI50 (IGROV-1)
Cc1c(OCc2cccc3ccccc23)ccc2c(=O)cc(SCCN3CCOCC3)oc12	> 100 µM (inactive)	> 100 µM (inactive)	> 100 µM (inactive)	> 100 µM (inactive)	> 100 µM (inactive)	> 100 µM (inactive)	> 100 µM (inactive)	> 100 µM (inactive)	> 100 µM (inactive)	> 100 µM (inactive)	> 100 µM (inactive)	6.53 µM (inactive)	> 100 µM (inactive)	> 100 µM (inactive)	> 100 µM (inactive)	> 100 µM (inactive)	> 100 µM (inactive)	> 100 µM (inactive)	> 100 µM (inactive)	> 100 µM (inactive)
CNCCCNC(=S)Cn1cc(C)c(=O)[nH]c1=O	> 47.4 µM (inactive)	> 64.7 µM (inactive)	> 60.4 µM (inactive)	> 91.2 µM (inactive)	> 52.6 µM (inactive)	> 26.1 µM (inactive)	24.9 µM (inactive)	> 20.1 µM (inactive)	> 45.2 µM (inactive)	> 60.8 µM (inactive)	> 57.8 µM (inactive)	> 43 µM (inactive)	> 61.9 µM (inactive)	> 21.3 µM (inactive)	> 55.6 µM (inactive)	> 30.6 µM (inactive)	> 53 µM (inactive)	> 48.1 µM (inactive)	> 35.2 µM (inactive)	> 39.5 µM (inactive)
O=C(C/C(=N/O)C(F)(F)F)c1cccs1	> 100 µM (inactive)	> 100 µM (inactive)	> 100 µM (inactive)	50 µM (inactive)	> 100 µM (inactive)	> 100 µM (inactive)	> 100 µM (inactive)	> 100 µM (inactive)	30.8 µM (inactive)	> 100 µM (inactive)	> 100 µM (inactive)	> 100 µM (inactive)	> 100 µM (inactive)	> 100 µM (inactive)	> 100 µM (inactive)	> 100 µM (inactive)	> 100 µM (inactive)	> 100 µM (inactive)	> 100 µM (inactive)	> 100 µM (inactive)
S=C(NN=C1NCCCCN1)Nc1ccc(Cl)cc1	4.52 µM (inactive)	27.3 µM (inactive)	21 µM (inactive)	77.6 µM (inactive)	18.1 µM (inactive)	22.9 µM (inactive)	< 0.01 µM (active)	28.2 µM (inactive)	22.3 µM (inactive)	31.9 µM (inactive)	23.4 µM (inactive)	3.78 µM (inactive)	64.3 µM (inactive)	5.36 µM (inactive)	33 µM (inactive)	4.48 µM (inactive)	8.09 µM (inactive)	14.5 µM (inactive)	6.67 µM (inactive)	16 µM (inactive)
Nc1c(-c2ccccc2)c2ccc([N+](=O)[O-])cc2c(=O)n1-c1cccc(C(=O)O)c1	> 100 µM (inactive)	> 100 µM (inactive)	> 100 µM (inactive)	> 100 µM (inactive)	> 100 µM (inactive)	> 100 µM (inactive)	> 100 µM (inactive)	> 100 µM (inactive)	> 100 µM (inactive)	> 100 µM (inactive)	> 100 µM (inactive)	> 100 µM (inactive)	51.9 µM (inactive)	> 100 µM (inactive)	> 100 µM (inactive)	94.6 µM (inactive)	> 100 µM (inactive)	> 100 µM (inactive)	> 100 µM (inactive)	> 100 µM (inactive)
N#Cc1c2c(c(Nc3ccc(F)cc3)n3c1nc1ccccc13)CCC2	10.9 µM (inactive)	3.7 µM (inactive)	3.61 µM (inactive)	8.61 µM (inactive)	18.4 µM (inactive)	3.25 µM (inactive)	1.68 µM (inactive)	3.46 µM (inactive)	14.3 µM (inactive)	11.3 µM (inactive)	5.27 µM (inactive)	7.21 µM (inactive)	7.19 µM (inactive)	3.54 µM (inactive)	12.9 µM (inactive)	0.791 µM (active)	5.89 µM (inactive)	6.55 µM (inactive)	7.73 µM (inactive)	3.52 µM (inactive)
N#Cc1c(-c2ccc([N+](=O)[O-])cc2)cc(-c2ccc(Nc3ccnc4cc(C(F)(F)F)ccc34)cc2)nc1N	62.4 µM (inactive)	> 48.2 µM (inactive)	18.9 µM (inactive)	18.6 µM (inactive)	14.1 µM (inactive)	9.14 µM (inactive)	18.5 µM (inactive)	26.9 µM (inactive)	> 41.3 µM (inactive)	36.1 µM (inactive)	8.89 µM (inactive)	11.9 µM (inactive)	37.2 µM (inactive)	25.5 µM (inactive)	> 48.3 µM (inactive)	1.88 µM (inactive)	11.7 µM (inactive)	7.19 µM (inactive)	4.34 µM (inactive)	8.53 µM (inactive)
CC(=O)NC1C(Sc2ncn(C3OC(CO)C(O)C(O)C3NC(C)=O)n2)OC(CO)C(O)C1O (stereo not given)	> 100 µM (inactive)	> 100 µM (inactive)	> 100 µM (inactive)	> 100 µM (inactive)	> 100 µM (inactive)	> 100 µM (inactive)	> 100 µM (inactive)	> 100 µM (inactive)	> 100 µM (inactive)	> 100 µM (inactive)	> 100 µM (inactive)	> 100 µM (inactive)	> 100 µM (inactive)	> 100 µM (inactive)	> 100 µM (inactive)	29 µM (inactive)	> 100 µM (inactive)	> 100 µM (inactive)	> 100 µM (inactive)	> 100 µM (inactive)
Cc1cn2c(C)csc2c1P(=O)(OC(C)C)OC(C)C	> 100 µM (inactive)	> 100 µM (inactive)	31.3 µM (inactive)	> 100 µM (inactive)	> 100 µM (inactive)	> 100 µM (inactive)	> 100 µM (inactive)	> 100 µM (inactive)	> 100 µM (inactive)	> 100 µM (inactive)	> 100 µM (inactive)	> 100 µM (inactive)	> 100 µM (inactive)	> 100 µM (inactive)	> 100 µM (inactive)	> 100 µM (inactive)	> 100 µM (inactive)	> 100 µM (inactive)	> 100 µM (inactive)	> 100 µM (inactive)
CC(=O)OC1CC[C@@]2(C)C(=CC[C@@H]3[C@@H]2CC[C@]2(C)Nc4c(cnn4-c4ccc(F)cc4)C[C@@H]32)C1 (stereo not given in full)	15.8 µM (inactive)	49 µM (inactive)	33 µM (inactive)	30.9 µM (inactive)	> 100 µM (inactive)	39.4 µM (inactive)	6.1 µM (inactive)	5.33 µM (inactive)	17.9 µM (inactive)	33.5 µM (inactive)	60.1 µM (inactive)	12.9 µM (inactive)	17.3 µM (inactive)	25.9 µM (inactive)	19.8 µM (inactive)	6.46 µM (inactive)	30.5 µM (inactive)	16.2 µM (inactive)	2.02 µM (inactive)	42.2 µM (inactive)
O=C1/C(=C/c2ccc(O)c(O)c2)CC/C1=C\c1ccc(O)c(O)c1	3.79 µM (inactive)	> 25.9 µM (inactive)	28.7 µM (inactive)	7.11 µM (inactive)	> 21.6 µM (inactive)	4.68 µM (inactive)	8.17 µM (inactive)	2.49 µM (inactive)	22.7 µM (inactive)	10.7 µM (inactive)	8.24 µM (inactive)	9.66 µM (inactive)	5.04 µM (inactive)	4.03 µM (inactive)	17 µM (inactive)	1.65 µM (inactive)	3.03 µM (inactive)	9.79 µM (inactive)	3.23 µM (inactive)	3.74 µM (inactive)
CC1(C)[C@@H]2CC[C@@]1(C)CN(CCC[N+](C)(C)C)C2	> 100 µM (inactive)	> 100 µM (inactive)	> 100 µM (inactive)	> 100 µM (inactive)	> 100 µM (inactive)	> 100 µM (inactive)	> 100 µM (inactive)	> 100 µM (inactive)	> 100 µM (inactive)	> 100 µM (inactive)	> 100 µM (inactive)	> 100 µM (inactive)	> 100 µM (inactive)	> 100 µM (inactive)	> 100 µM (inactive)	> 100 µM (inactive)	> 100 µM (inactive)	> 100 µM (inactive)	> 100 µM (inactive)	> 100 µM (inactive)
Cn1c(=O)c2c(nc(Nc3ccc(Cl)cc3)n3c(=O)n(-c4ccccc4)c(=O)n23)n(C)c1=O	> 100 µM (inactive)	> 100 µM (inactive)	> 100 µM (inactive)	> 100 µM (inactive)	> 100 µM (inactive)	> 100 µM (inactive)	> 100 µM (inactive)	> 100 µM (inactive)	> 100 µM (inactive)	> 100 µM (inactive)	> 100 µM (inactive)	> 100 µM (inactive)	> 100 µM (inactive)	> 100 µM (inactive)	> 100 µM (inactive)	> 100 µM (inactive)	> 100 µM (inactive)	> 100 µM (inactive)	> 100 µM (inactive)	> 100 µM (inactive)
COc1ccc(/C=C/C(=O)Oc2cc(O)cc(O)c2)cc1	> 100 µM (inactive)	> 100 µM (inactive)	35.7 µM (inactive)	> 100 µM (inactive)	33 µM (inactive)	61.9 µM (inactive)	17.2 µM (inactive)	95.1 µM (inactive)	> 100 µM (inactive)	56.2 µM (inactive)	34.4 µM (inactive)	> 100 µM (inactive)	49.8 µM (inactive)	52.8 µM (inactive)	> 100 µM (inactive)	11.5 µM (inactive)	41.4 µM (inactive)	14.2 µM (inactive)	11.3 µM (inactive)	16.5 µM (inactive)
